This note sets out measurements from patent publication US7816325B2, “Secondary binding site of dipeptidyl peptidase IV (DP IV)” (OSI Pharmaceuticals, Inc., priority 2003, dated 2010).

In data set [1] the test system is DP IV. Nature of the data set: DP IV-catalyzed truncation of peptides, half-life by MALDI-TOF MS. The class given is biochemical. The conditions noted are these: for hydrolysis by DP IV: GIP-fragments of different chain lengths. The protocol:
(§1) In particular, the capability of purified DP IV from human, from porcine kidney, of recombinant human DP IV and the DP IV activity of the human serum to truncate the peptides of the GRF family were analyzed.
(§2) 250 single laser-shot spectra were accumulated.

For data set [2], the target named is T1, recombinant human DP IV, mutation R560A (Homo sapiens, UniProt P27487, R560A). As to the kind of experiment: Kinetic characterization of substrate hydrolysis (Km, kcat). The conditions noted are these: mu 15 DP IV (R560A).
T1 sequence (P27487 37-766 R560A): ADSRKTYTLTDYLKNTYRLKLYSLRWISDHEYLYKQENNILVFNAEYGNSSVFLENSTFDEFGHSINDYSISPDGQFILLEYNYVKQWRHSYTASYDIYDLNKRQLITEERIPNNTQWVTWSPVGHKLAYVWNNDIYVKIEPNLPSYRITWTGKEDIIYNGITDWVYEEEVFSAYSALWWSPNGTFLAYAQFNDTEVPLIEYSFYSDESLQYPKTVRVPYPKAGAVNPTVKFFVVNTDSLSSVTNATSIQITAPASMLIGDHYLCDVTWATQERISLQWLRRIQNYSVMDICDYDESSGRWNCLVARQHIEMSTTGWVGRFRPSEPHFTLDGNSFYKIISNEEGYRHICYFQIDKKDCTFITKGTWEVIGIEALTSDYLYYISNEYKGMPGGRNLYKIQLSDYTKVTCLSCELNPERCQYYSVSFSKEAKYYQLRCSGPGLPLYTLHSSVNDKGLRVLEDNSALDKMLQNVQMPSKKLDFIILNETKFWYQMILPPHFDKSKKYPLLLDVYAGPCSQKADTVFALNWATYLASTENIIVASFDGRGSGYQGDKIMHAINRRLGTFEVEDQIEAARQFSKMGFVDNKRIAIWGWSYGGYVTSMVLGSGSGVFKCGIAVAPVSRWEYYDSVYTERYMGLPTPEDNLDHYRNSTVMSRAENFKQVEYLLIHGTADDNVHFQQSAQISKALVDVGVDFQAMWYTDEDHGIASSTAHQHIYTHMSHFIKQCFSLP
Data set [3] addresses T2, recombinant human DP IV, wild type (Homo sapiens, UniProt P27487).
T2 construct: His6 (N); made in house; host or cells: Pichia pastoris X-33 (vector pPICαC, secreted into the medium)
The description is as above. The class given is biochemical. The conditions noted are these: rh wt DP IV.

The target of data set [4] is T3, recombinant human DP IV, mutation W629A (Homo sapiens, UniProt P27487, W629A). The data set is described as above. The conditions noted are these: mu 16 DP IV (W629A).
T3 sequence (P27487 37-766 W629A): as the sequence (P27487 37-766 R560A) above, with A524R, W593A counted along it
Data set [5] can be described thus: Stability in biological fluids (human serum or plasma).
The target in data set [6] is T2, recombinant human DP IV, wild type. As to the kind of experiment: Ki in competition to standard substrate GP-4NA. The conditions noted are these: rh wt DP IV, competition to GP-4NA. The class given is biochemical. The protocol:
(§3) In order to measure the inhibition constant Ki a photometric assay was used The peptides were measured as competitors of the standard substrate GP-4-Nitroanilide. Three different substrate concentrations (0.4 mM to 0.05 mM) were combined with 8 different competitor concentrations (0.5 mM to 2 μM). […] Experiments were carried out under standard conditions: 30° C. in pH 7.6 40 mM HEPES (Sigma-Aldrich) buffer. Nitroaniline production was monitored using a HTS 7000+ microplate reader (PerkinElmer, Überlingen, Germany).

Data set [7] deals with T4, porcine kidney DP IV, wild type (Sus scrofa, UniProt P22411).
T4 construct: the DP IV-protein was released from the membrane by an 18 h autolysis step at 30° C; from tissue; host or cells: porcine kidney cortex
T4 sequence (P22411 38-766 limits assumed): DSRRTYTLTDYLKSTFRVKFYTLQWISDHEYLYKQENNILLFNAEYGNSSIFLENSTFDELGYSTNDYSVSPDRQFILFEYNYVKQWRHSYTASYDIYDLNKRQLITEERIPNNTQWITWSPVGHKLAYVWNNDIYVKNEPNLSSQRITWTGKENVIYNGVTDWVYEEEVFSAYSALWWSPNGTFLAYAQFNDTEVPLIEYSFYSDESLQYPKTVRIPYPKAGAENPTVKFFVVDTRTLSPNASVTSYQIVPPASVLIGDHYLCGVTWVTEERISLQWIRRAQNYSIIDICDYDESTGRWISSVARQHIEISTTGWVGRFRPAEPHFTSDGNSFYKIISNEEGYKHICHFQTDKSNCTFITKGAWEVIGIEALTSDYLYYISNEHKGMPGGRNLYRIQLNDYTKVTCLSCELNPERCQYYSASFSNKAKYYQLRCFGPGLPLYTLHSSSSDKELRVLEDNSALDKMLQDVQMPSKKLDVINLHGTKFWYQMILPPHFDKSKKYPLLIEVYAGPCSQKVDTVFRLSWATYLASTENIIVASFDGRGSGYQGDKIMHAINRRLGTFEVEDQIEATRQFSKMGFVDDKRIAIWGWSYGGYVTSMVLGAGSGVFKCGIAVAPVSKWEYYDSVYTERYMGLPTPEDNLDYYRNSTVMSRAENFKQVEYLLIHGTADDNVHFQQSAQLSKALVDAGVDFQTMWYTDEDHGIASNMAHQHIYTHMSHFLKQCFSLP
Nature of the data set: Kinetic characterization of substrate hydrolysis (Km). Format: biochemical. The conditions noted are these: p wt DP IV.

For data set [8], the target named is T1, recombinant human DP IV, mutation R560A. Nature of the data set: Ki in competition to standard substrate GP-4NA. The class given is biochemical. On the set-up: His6 (N); made in house; host or cells: Pichia pastoris X-33 (vector pPICαC, secreted). The conditions noted are these: mu 15 DP IV (R560A), competition to GP-4NA. The protocol:
as §3

In data set [9] the target is T3, recombinant human DP IV, mutation W629A. Nature of the data set: Ki in competition to standard substrate GP-4NA. Format: biochemical. On the set-up: His6 (N); made in house; host or cells: Pichia pastoris X-33 (vector pPICαC, secreted). The conditions noted are these: mu 16 DP IV (W629A), competition to GP-4NA. The protocol:
as §3

Data set [10] has as its target T4, porcine kidney DP IV, wild type. As to the kind of experiment: Ki in competition to standard substrate GP-4NA. Format: biochemical. The conditions noted are these: p wt DP IV; competition to GP-4NA. The method, then:
(§4) In order to measure the inhibition constant Ki a photometric assay was used The peptides were measured as competitors of the standard substrate GP-4-Nitroanilide. Three different substrate concentrations (0.4 mM to 0.05 mM) were combined with 8 different competitor concentrations (0.5 mM to 2 μM). The reaction was started by addition of 3.5 nM DP IV. Experiments were carried out under standard conditions: 30° C. in pH 7.6 40 mM HEPES (Sigma-Aldrich) buffer. Nitroaniline production was monitored using a HTS 7000+ microplate reader (PerkinElmer, Überlingen, Germany). The Ki-values were calculated via non-linear regression using the enzyme kinetic program Grafit 4.016 (Erithacus Ltd, UK).

Data set [11] deals with DP IV. Nature of the data set: DP IV-catalyzed hydrolysis, determination of Km. Format: biochemical.
The target of data set [12] is DP IV. As to the kind of experiment: Photometric Ki assay, competition with standard substrate GP-4-Nitroanilide. The conditions noted are these: read-out: Ki, influence on GP-4-Nitroanilide hydrolysis. Format: biochemical. The method, then: as §4
For a reversible competitive inhibition is to assumed: […]

Data set [13] relates to DP IV. As to the kind of experiment: DP IV-catalyzed peptide truncation test with or without preincubation with effector peptide. The conditions noted are these: for affinity of larger oligopeptides such as GIP, VIP, glucagon / binding and hydrolysis of small dipeptide substrates: DP IV preincubated with the peptide. Format: biochemical. The method, then:
as §2
In order to investigate directly the influence of the test compounds TFTSDY, TFTDDY and H-Ser-D-Glu-Thr-Gly-D-Val-D-Lys-D-Val-OH on the DP IV-catalyzed peptide hydrolysis the MALDI-TOF assay was used.
As described before (determination of t1/2) DP IV and the test compounds were preincubated and the reaction was started by adding the enzyme/hexapeptide mixture to substrate/buffer mix. The control reaction mixture consisted of buffer, enzyme and substrate. From the curves of the first order exponential the initial rate (vi) for the control and the reversible inhibited reaction was calculated.

Data set [14] is described as follows: DP IV-catalyzed truncation of peptides, half-life by MALDI-TOF MS. The class given is biochemical. The protocol:
as §1, §2

Setting [15] is: preincubation with 160 μM TFTSDY.

Where two headings read alike, the source gives them in different places. Where a SMILES comes first, the peptide text is derived from it. [ ]: non-standard residue; d: D form. The star is where a group is joined. AMC = Cc1cc(=O)oc2cc(N*)ccc12

T2 sequence (P27487 37-766): as the sequence (P27487 37-766 R560A) above, with A524R counted along it

Turning to G^2GIP1-6: GIP-fragment analog (YAEGTF), in the data set on DP IV [1], the Truncation half life entry is recorded as “no degradation” and the “hydrolysis by DP IV” value is listed as “not hydrolyzed”.

On to `Cc1cc(=O)oc2cc(NC(=O)[C@@H]3CCCN3C(=O)CN)ccc12` [Gly-Pro-AMC, H-Gly-Pro-AMC] (H-Gly-Pro-{AMC}), for which the Km in data set [2] was determined as 46.6 µM; in data set [3] it was 35.3 µM; in data set [4], 50.2 µM. For the same compound, the kcat in [2] came out at 1e+06 s⁻¹; in [3], 1.66e+06 s⁻¹; in data set [4], 1.44e+06 s⁻¹.

Regarding `C[C@@H](O)[C@H](N)C(=O)N[C@@H](Cc1ccccc1)C(=O)N[C@H](C(=O)N[C@@H](CC(=O)O)C(=O)N[C@@H](CC(=O)O)C(=O)N[C@@H](Cc1ccc(O)cc1)C(=O)O)[C@@H](C)O` [TFTDDY] (H-TFTDDY-OH), the “stability in biological fluids” value in data set [5] is on record as “instable”.

Turning to `CC(C)C[C@H](N)C(=O)N1CCSC1` [Leu-Thia-Fum], the inhibitory constant (Ki) in data set [6] (read-out: Ki) came to 0.0658 µM; in data set [8] (read-out: Ki) it was 0.0681 µM; in [9] (read-out: Ki) it was 0.0657 µM; in [10], 0.0729 µM. The Michaelis constant (Km) in [7] worked out at 59.8 µM; in [3], 42.6 µM.

Turning to Glucagon, in the data set on DP IV [11], the Michaelis-Menten constant (Km) was determined as 3.8 µM.

Regarding “V^2GIP(1-4): GIP-fragment analog, test compound of Table 5 (YAEGTF)”, the inhibition constant Ki entry in [6], in data set [8] and in [9] was “no inhibition” throughout.

[Gly]^2-glucagon: glucagon analog: the Km in the data set on DP IV [11] came to 22 µM.

`C[C@@H](O)[C@H](N)C(=O)N[C@@H](Cc1ccccc1)C(=O)N[C@H](C(=O)N[C@@H](CO)C(=O)N[C@@H](CC(=O)O)C(=O)N[C@@H](Cc1ccc(O)cc1)C(=O)O)[C@@H](C)O` [TFTSDY] (H-TFTSDY-OH; N-terminus and C-terminus assumed): the “stability in biological fluids” value in [5] is “instable”. For the same compound, the Ki result is “no inhibition” in [6], 710 µM on DP IV [12], “no inhibition” in data set [8] and “no inhibition” in [9]. In the data set with DP IV [13] (DP IV (porcine and recombinant human) catalyzed peptide truncation test, FIG. 16), the “half-lifes of GIP, Glucagon, PACAP-27 and PACAP-38” value is “prolongation”. In the data set with DP IV [13], the “affinity of larger oligopeptides such as GIP, VIP, glucagon” value is “considerably reduced”. In addition, the “binding and hydrolysis of small dipeptide substrates” value with DP IV [13] was “only slightly influenced”. Further, in the data set with DP IV [13] (setting [15]), the “half-lives of GIP and glucagon in presence of DP IV” value is “prolonged”. In the data set on DP IV [13] (setting [15]), the “incubation of Rantes1-15 and DP IV with or without the hexapeptide” value is listed as “No differences”.

For the compound V^2GIP1-6: GIP-fragment analog (YAEGTF), in the data set with DP IV [1], the Truncation half life entry is “no degradation” and the “hydrolysis by DP IV” value was “not hydrolyzed”.

Consider `CC(C)[C@@H](NC(=O)[C@@H](CCCCN)NC(=O)[C@H](NC(=O)CNC(=O)[C@@H](NC(=O)[C@@H](CCC(=O)O)NC(=O)[C@@H](N)CO)[C@@H](C)O)C(C)C)C(=O)O` [H-Ser-D-Glu-Thr-Gly-D-Val-D-Lys-D-Val-OH] (H-S[dE]TG[dV][dK][dV]-OH), for which the “stability in biological fluids” value in data set [5] is on record as “not enzymatically degraded”. Moreover, in the data set on DP IV [13], the “affinity of larger oligopeptides such as GIP, VIP, glucagon” value is on record as “considerably reduced”; the “binding and hydrolysis of small dipeptide substrates” value is “only slightly influenced”. In addition, the “improving the substrate specificity of DP IV” value in the data set on DP IV [13] (compared to control experiments without the heptapeptide) is “very effective”.

For the compound `C[C@H](NC(=O)[C@@H](N)Cc1ccc(O)cc1)C(=O)N[C@@H](CCC(=O)O)C(=O)N[C@@H](CO)C(=O)N[C@H](C(=O)N[C@@H](Cc1ccccc1)C(N)=O)[C@@H](C)O` [YAESTF amide] (H-YAESTF-NH2; N-terminus assumed), the Ki in data set [6] (read-out: Ki) was determined as 0.0351 µM.

`Cc1cc(=O)oc2cc(NC(=O)CNC(=O)[C@@H](N)Cc3c[nH]cn3)ccc12` [His-Gly-AMC] (H-His-Gly-{AMC}): the Km in the data set on DP IV [11] was found to be 410 µM.

As for “His^1-Ser^2-NPY: NPY analog, full-length substrate”, the Km with DP IV [11] is 68 µM.

In the case of `Cc1cc(=O)oc2cc(NC(=O)[C@H](CO)NC(=O)CN)ccc12` [Gly-Ser-AMC] (H-Gly-Ser-{AMC}), the Km result in [2] is “Not hydrolyzed”; in data set [3], 440 µM; in data set [4] it was “Not hydrolyzed”.

Take `C[C@H](NC(=O)[C@@H](N)Cc1ccc(O)cc1)C(=O)N[C@@H](CCC(=O)O)C(=O)NCC(=O)N[C@H](C(=O)N[C@@H](Cc1ccccc1)C(=O)O)[C@@H](C)O` [GIP1-6, YAEGTF] (H-YAEGTF-OH; N-terminus and C-terminus assumed): the half-life in [14] (bioactive peptides which are substrates for DP IV, read-out: Truncation half life) was below 0.125 h.

Turning to `C[C@@H](O)[C@H](NC(=O)CNC(=O)[C@H](CCC(=O)O)NC(=O)[C@H](CO)NC(=O)[C@@H](N)Cc1ccc(O)cc1)C(=O)N[C@@H](Cc1ccccc1)C(=O)O` [S^2GIP1-6] (H-YSEGTF-OH; N-terminus and C-terminus assumed), the Ki entry in data set [6], in data set [8] and in data set [9] was “no inhibition” throughout. The same compound displayed a half-life in data set [14] of 1.32 h. Besides, the “hydrolysis by DP IV” value in the data set on DP IV [1] was “truncated”.

In general, Km refers to the substrate concentration at which the rate is half of its maximum. As a reminder, the kcat is the maximal rate divided by the concentration of active sites. By Ki is commonly meant a measure of affinity in units of concentration, obtained from inhibition or displacement. A word on the half-life: it is the time in which the quantity being followed falls by half.
